# Read-outs that look alike come from different tables or passages of the source.
# Experiments:
# [1] = system: K. pneumoniae ATCC BAA-1705 (KPM1123), KPC-2; parameters: method as in earlier work; conditions: quality control range; ref CLSI; cited from earlier work
# PAM4888 producing IMP-4 = assay: MIC, engineered isogenic strain; assay type: cell-based, P. aeruginosa; conditions: IMP-4, class B; BLIs at fixed 4 µg/mL
# PAM4175 (no β-lactamase) = assay: MIC, engineered isogenic strain; assay type: cell-based, P. aeruginosa; conditions: BLIs at fixed 4 µg/mL
# [2] = system: PAM4821 producing CTX-M-25; assay: MIC, engineered isogenic strain; assay type: cell-based, P. aeruginosa; conditions: CTX-M-25, class A; BLIs at fixed 4 µg/mL
# [3] = system: K. pneumoniae ATCC BAA-2814 (KP1074), KPC-3; parameters: method as in earlier work; conditions: quality control range; ref CLSI; cited from earlier work
# PAM4890 producing IMP-19 = assay: MIC, engineered isogenic strain; assay type: cell-based, P. aeruginosa; conditions: IMP-19, class B; BLIs at fixed 4 µg/mL
# PAM4800 producing GES-19 = assay: MIC, engineered isogenic strain; assay type: cell-based, P. aeruginosa; conditions: GES-19, class A; BLIs at fixed 4 µg/mL
# PAM4875 producing OXA-23 = assay: MIC, engineered isogenic strain; assay type: cell-based, P. aeruginosa; conditions: OXA-23, class D; BLIs at fixed 4 µg/mL
# PAM4869 producing PDC-1 = assay: MIC, engineered isogenic strain; assay type: cell-based, P. aeruginosa; conditions: PDC-1, class C; BLIs at fixed 4 µg/mL
# [4] = parameters: method as in PMID 31871094; conditions: cited from earlier work
# SHV-12 = SHV-12 (Klebsiella pneumoniae, UniProt P0AD64, E235K/G234S/L31Q); assay: Ki app of β-lactamase inhibition, purified enzyme; assay type: biochemical; conditions: 10-minute preincubation; nitrocefin substrate; read-out: Ki app
# SHV-12, sequence (P0AD64 22-286 L31Q/G234S/E235K): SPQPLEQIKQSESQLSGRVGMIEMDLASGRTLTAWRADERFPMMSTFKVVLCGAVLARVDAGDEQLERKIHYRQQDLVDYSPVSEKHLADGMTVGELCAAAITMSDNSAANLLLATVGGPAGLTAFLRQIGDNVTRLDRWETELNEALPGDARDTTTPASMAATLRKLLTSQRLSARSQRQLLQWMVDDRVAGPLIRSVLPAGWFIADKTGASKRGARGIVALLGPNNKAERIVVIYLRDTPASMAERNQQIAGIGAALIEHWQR
# Experimental: (§1) The majority of purified β-lactamase enzymes used in the study were either expressed and purified internally ([35]) or obtained from Emerald Biostructures (Bainbridge Island, WA, USA). L1 enzyme was purified as described in reference ([36]).
# (§2) Enzymes were mixed with BLIs at concentrations varying from 160 to 0.0027 µM in 50-mM Na-phosphate pH7.0, 0.1-mg/mL bovide serum albumin (BSA) (buffer A; 20-µM ZnCl2 was also added for all metalloenzymes) and incubated for 10 minutes at 37°C. Nitrocefin (50 µM) (10 µM for SHV-12) or 100 µM of imipenem (prewarmed at 37°C for 10 minutes) was added, and substrate cleavage profiles were recorded at 37°C at 490 nm every 10 seconds for 10 minutes or at 294 nm every 30 seconds for 1 hour for nitrocefin and imipenem, respectively. […] Ki app values (Ki for metalloenzymes) were calculated by the method of Waley ([37]).
# IMP-1 = IMP-1 (Serratia marcescens, UniProt P52699); assay: Ki of metallo-β-lactamase inhibition, purified enzyme; assay type: biochemical; conditions: 10-minute preincubation; imipenem substrate; read-out: Ki
# IMP-1, sequence (P52699 19-246 limits assumed): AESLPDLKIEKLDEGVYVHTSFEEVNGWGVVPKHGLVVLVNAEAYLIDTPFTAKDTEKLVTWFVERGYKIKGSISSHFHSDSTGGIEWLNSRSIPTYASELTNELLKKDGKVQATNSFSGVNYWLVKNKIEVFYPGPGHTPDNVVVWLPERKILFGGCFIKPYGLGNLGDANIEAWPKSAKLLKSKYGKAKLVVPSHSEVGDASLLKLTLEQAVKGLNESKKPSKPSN
# Experimental: as §1, §2
# IMP-26 = IMP-26 (Pseudomonas aeruginosa, UniProt D0V558); assay: as above; assay type: biochemical; conditions: 10-minute preincubation; nitrocefin substrate
# IMP-26, sequence (D0V558 entry or part of it): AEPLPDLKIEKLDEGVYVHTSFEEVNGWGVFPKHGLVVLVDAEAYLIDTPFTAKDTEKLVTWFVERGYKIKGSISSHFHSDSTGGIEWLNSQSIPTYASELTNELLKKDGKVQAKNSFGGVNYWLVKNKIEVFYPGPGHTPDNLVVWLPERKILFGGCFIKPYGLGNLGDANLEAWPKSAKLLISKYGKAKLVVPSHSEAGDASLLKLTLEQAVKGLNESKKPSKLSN
# Experimental: as §1, §2
# [5] = target: T1, VIM-1 in whole cells of KP1015 (OmpK36 GD repeat) (Pseudomonas aeruginosa, UniProt A0A0F7KYQ8); assay: cell-based; parameters: species or system K. pneumoniae
# T1 construct: endogenous in cells; host or cells: K. pneumoniae KP1015
# [6] = system: Escherichia coli NCTC 13353 (ECM7514), CTX-M-15; parameters: method as in earlier work; conditions: quality control range; ref CLSI; cited from earlier work
# [7] = system: Klebsiella pneumoniae ATCC 700603 (KPM2881), SHV-18; parameters: method as in earlier work; conditions: quality control range; ref CLSI; cited from earlier work
# [8] = system: NDM-9 (lysate of NDM-9-producing strain); conditions: read-out: IC50 of inhibition of imipenem hydrolysis in cell lysates; cited from earlier work
# KPC-2 = KPC-2 (Klebsiella pneumoniae, UniProt Q9F663); assay: Ki app of β-lactamase inhibition, purified enzyme; assay type: biochemical; conditions: 10-minute preincubation; nitrocefin substrate
# KPC-2, sequence (Q9F663 25-293 limits assumed): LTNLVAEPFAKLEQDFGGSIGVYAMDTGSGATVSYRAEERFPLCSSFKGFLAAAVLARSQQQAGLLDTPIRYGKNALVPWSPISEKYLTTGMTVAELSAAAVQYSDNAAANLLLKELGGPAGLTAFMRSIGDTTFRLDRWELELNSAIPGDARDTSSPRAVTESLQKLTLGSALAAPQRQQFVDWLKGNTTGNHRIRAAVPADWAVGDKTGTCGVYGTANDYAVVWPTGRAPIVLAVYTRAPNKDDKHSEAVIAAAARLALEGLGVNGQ
# Experimental: as §1, §2
# [9] = cited from earlier work
SMILES,MIC (PAM4888 producing IMP-4),MIC (PAM4175 (no β-lactamase)),MIC [2],MIC (PAM4890 producing IMP-19),MIC (PAM4800 producing GES-19),MIC (PAM4875 producing OXA-23),MIC (PAM4869 producing PDC-1),also measured
"C[C@@H](O)[C@H]1C(=O)N2C(C(=O)O)=C(S[C@@H]3CN[C@H](C(=O)N(C)C)C3)[C@H](C)[C@H]12 [MEM, meropenem]",4 µg/mL,0.125 ^ a,0.5 µg/mL,1 µg/mL,1 µg/mL,2 µg/mL,0.5 µg/mL,CLSI approved MIC range [1]: 8.0 to 64 µg/mL; CLSI approved MIC range [3]: 32 to 256 µg/mL
"NCCN[C@H]1CC[C@H](CC(=O)N[C@H]2Cc3cccc(C(=O)O)c3OB2O)CC1 [Taniborbactam, taniborbactam]",–,–,–,–,–,–,–,concentration at which direct antibacterial activity is lacking [4]: > 512 µg/mL; Ki (SHV-12): 0.00015 ± 3e-05 µM; Ki (IMP-1): > 20 µM; Ki (IMP-26): > 20 µM; IC50 ([5]; read-out: IC50 of β-lactamase inhibition in whole cells): 39.1 ± 8.2 µM
"CO/N=C(\C(=O)N[C@@H]1C(=O)N2C(C(=O)[O-])=C(C[N+]3(C)CCCC3)CS[C@H]12)c1csc(N)n1 [FEP, cefepime]",32 µg/mL,0.25 µg/mL,> 64 µg/mL,64 µg/mL,64 µg/mL,2 µg/mL,4 µg/mL,CLSI approved MIC range [6]: > 64 µg/mL; CLSI approved MIC range [7]: 0.5 to 2 µg/mL
"O=C(O)c1c(F)ccc2c1OB(O)[C@@H]1C[C@H]21 [Xeruborbactam, xeruborbactam]",–,–,–,–,–,–,–,"IC50 [8]: 1.2 ± 0.1 µM; Ki (KPC-2): 0.0014 ± 0.0002 µM; steady-state plasma concentration ([9]; phase I subjects, 500-mg loading dose then 250 mg every 8 hours by 3-hour infusion): ~ 7 µg/mL; safety and tolerability ([9]; phase I, intravenous or oral (prodrug), doses of 1,000 mg/day or less): safe and well tolerated; IC50 [5]: 70 ± 13.4 µM"
